Test results published in patent US20230150974A1 (Foghorn Therapeutics Inc., priority 2020, published 2023).

How the values were obtained:
[1] = target: T1, HiBit-BRG1 (Homo sapiens, UniProt P51532); assay: HiBit-BRG1 cell-based degradation assay (Nano-Glo HiBiT Lytic Detection); details: HeLa cells expressing HiBit-BRG1 and LgBit, 24 h; for DC50: read-out: BRG1 HiBit Degradation IC50; for Dmax: read-out: BRG1 HiBit Degradation Maximum (%)
T1 construct: expressed in transfected cells
Protocol: (§1) Procedure: A stable HeLa cell line expressing HiBiT-BRM was generated. On day 0, 5000 cells were seeded in 40 μL of media into each well of 384-well cell culture plates. […] Subsequently plates were incubated for 24 h in a standard tissue culture incubator and equilibrated at room temperature for 15 minutes. Nano-Glo HiBiT Lytic Detection System (Promega N3050) reagent was freshly prepared and 20 ul was added to each well. Upon addition of this LgBit-containing reagent, the HiBiT and LgBiT proteins associate to form the luminescent NanoBiT luciferase. The plates were shaken for 10 minutes at room temperature and the bioluminescence read using an EnVision plate reader (PerkinElmer).
For measurement of BRG1 degradation, a stable HeLa cell line expressing HiBit-BRG1 and LgBit was generated. The same protocol as above was then followed.
(§2) The degradation % was calculated using the following formula: % degradation=100%−100%×(LumSample−LumLC)/(LumHC−LumLC). DMSO treated cells are employed as High Control (HC) and 2 μM of a known BRM/BRG1 degrader standard treated cells are employed as Low Control (LC).

[2] = target: T2, HiBiT-BRM (Homo sapiens, UniProt P51531); assay: HiBiT-BRM cell-based degradation assay (Nano-Glo HiBiT Lytic Detection); details: HeLa cells expressing HiBiT-BRM, 24 h; for DC50: read-out: BRM HiBit Degradation IC50
T2 construct: expressed in transfected cells
T2 sequence (P51531 whole entry): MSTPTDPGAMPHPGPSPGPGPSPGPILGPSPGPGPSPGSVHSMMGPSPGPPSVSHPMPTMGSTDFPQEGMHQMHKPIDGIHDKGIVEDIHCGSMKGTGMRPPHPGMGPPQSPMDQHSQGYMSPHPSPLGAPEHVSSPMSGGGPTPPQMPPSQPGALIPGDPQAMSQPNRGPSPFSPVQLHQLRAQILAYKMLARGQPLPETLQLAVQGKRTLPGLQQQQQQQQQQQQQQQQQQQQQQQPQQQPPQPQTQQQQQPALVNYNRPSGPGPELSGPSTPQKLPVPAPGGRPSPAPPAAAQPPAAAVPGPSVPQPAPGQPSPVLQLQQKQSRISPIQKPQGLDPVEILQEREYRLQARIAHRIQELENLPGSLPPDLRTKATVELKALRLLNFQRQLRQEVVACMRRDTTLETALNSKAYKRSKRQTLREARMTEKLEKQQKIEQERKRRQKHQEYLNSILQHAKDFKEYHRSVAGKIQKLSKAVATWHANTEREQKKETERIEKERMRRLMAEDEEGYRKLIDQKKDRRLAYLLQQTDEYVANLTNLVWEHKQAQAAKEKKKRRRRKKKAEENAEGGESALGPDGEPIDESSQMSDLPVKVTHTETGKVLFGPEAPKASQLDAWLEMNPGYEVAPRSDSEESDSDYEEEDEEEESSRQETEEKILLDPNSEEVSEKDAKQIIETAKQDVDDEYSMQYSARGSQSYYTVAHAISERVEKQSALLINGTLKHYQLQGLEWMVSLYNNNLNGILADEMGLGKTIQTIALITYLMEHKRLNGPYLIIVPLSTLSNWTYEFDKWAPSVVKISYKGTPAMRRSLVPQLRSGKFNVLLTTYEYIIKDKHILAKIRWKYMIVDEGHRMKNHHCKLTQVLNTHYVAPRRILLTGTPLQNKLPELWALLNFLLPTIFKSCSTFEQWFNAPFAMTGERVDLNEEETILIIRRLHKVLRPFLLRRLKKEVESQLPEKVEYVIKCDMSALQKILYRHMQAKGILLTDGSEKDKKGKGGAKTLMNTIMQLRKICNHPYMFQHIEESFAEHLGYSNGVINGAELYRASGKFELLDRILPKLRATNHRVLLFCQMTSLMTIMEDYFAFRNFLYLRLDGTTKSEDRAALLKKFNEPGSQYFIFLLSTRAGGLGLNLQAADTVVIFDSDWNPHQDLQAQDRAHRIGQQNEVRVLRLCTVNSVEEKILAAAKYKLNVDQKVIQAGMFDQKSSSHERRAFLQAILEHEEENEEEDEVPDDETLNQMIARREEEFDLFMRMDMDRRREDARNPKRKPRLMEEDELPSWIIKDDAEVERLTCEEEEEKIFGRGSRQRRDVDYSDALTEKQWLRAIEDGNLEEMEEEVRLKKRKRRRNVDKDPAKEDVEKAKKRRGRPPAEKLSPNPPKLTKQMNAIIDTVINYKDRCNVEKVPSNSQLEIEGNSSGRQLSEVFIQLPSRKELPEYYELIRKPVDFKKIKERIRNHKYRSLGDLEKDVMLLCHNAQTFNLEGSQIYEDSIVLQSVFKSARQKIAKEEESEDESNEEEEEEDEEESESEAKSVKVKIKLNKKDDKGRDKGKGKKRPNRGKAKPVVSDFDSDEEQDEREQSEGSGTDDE
Protocol: as §1, §2

T1 sequence (P51532 whole entry): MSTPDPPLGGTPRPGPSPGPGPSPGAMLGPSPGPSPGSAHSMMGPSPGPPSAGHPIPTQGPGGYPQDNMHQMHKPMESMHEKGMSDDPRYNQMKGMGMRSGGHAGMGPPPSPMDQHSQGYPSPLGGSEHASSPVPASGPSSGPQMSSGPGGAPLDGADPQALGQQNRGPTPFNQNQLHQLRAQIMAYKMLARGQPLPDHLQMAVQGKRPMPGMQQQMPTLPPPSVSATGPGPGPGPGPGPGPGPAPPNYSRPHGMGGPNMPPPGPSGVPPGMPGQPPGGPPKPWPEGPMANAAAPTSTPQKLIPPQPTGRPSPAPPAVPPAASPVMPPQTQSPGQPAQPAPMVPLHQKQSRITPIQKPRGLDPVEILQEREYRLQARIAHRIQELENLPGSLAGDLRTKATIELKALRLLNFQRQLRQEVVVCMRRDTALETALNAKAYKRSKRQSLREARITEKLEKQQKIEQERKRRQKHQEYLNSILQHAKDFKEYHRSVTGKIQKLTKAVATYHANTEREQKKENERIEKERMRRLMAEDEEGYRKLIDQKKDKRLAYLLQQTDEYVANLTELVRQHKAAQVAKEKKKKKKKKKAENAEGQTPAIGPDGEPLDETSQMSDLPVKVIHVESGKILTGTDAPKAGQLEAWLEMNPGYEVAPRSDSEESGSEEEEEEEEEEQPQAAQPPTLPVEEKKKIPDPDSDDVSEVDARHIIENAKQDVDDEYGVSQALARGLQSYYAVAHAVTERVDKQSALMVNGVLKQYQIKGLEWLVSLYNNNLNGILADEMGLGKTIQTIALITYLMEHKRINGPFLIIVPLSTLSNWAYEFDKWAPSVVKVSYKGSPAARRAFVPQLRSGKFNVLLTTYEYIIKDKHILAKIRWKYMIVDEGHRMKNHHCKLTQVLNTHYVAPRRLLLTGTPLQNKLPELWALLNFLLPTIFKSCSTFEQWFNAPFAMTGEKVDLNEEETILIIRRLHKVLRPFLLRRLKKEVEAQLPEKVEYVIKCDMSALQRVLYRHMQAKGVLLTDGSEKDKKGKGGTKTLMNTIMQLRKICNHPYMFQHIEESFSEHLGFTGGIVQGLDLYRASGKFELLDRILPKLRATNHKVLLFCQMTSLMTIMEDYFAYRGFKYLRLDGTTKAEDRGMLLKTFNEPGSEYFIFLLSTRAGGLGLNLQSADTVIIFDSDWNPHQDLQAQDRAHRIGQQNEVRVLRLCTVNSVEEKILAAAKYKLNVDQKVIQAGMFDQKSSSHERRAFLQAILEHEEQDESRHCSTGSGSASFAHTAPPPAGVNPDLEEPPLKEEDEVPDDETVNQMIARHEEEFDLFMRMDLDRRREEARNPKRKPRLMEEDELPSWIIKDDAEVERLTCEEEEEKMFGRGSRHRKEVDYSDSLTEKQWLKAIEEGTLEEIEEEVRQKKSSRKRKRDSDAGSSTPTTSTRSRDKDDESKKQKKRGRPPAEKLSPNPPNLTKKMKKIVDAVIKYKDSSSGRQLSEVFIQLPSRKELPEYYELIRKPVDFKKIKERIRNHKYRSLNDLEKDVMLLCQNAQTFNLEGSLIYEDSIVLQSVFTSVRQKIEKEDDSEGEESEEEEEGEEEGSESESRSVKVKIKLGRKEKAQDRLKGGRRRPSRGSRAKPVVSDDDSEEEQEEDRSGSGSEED

## CCN(CCc1ccc(C(=O)NCCCCCCCCCC(=O)N[C@H](C(=O)N2C[C@H](O)C[C@H]2C(=O)NCc2ccc(-c3scnc3C)cc2)C(C)(C)C)cc1)c1cc(-c2ccccc2O)nnc1N (racemic) [Compound 144, (2S,4R)-1-((S)-2-(10-(4-(2-((3-amino-6-(2-hydroxyphenyl)pyridazin-4-yl)(ethyl)amino)ethyl)benzamido)decanamido)-3,3-dimethylbutanoyl)-4-hydroxy-N-(4-(4-methylthiazol-5-yl)benzyl)pyrrolidine-2-carboxamide]
[1]
  DC50: > 1000 nM
  Dmax: < 50%
[2]
  BRM HiBit Degradation Maximum (%): A (“A” indicates maximum degradation ≥75%)
  DC50: > 100 nM

## Cc1ncsc1-c1ccc(CNC(=O)[C@H]2C[C@H](O)CN2C(=O)[C@H](NC(=O)CCCCCNC(=O)c2ccc(CCOc3cc(-c4ccccc4O)nnc3N)cc2)C(C)(C)C)cc1 (stereo in doubt) [Compound 53, (2R,4S)-1-((R)-2-(6-(4-(2-((3-amino-6-(2-hydroxyphenyl)pyridazin-4-yl)oxy)ethyl)benzamido)hexanamido)-3,3-dimethylbutanoyl)-4-hydroxy-N-(4-(4-methylthiazol-5-yl)benzyl)pyrrolidine-2-carboxamide]
[1]
  DC50: > 1000 nM
  Dmax: < 50%
[2]
  BRM HiBit Degradation Maximum (%): C (“C” indicates maximum degradation <50%)
  DC50: > 1000 nM

## Cc1ncsc1-c1ccc(CNC(=O)[C@H]2C[C@H](O)CN2C(=O)[C@H](NC(=O)COCCOCCNC(=O)c2ccc(CCOc3cc(-c4ccccc4O)nnc3N)cc2)C(C)(C)C)cc1 (stereo in doubt) [Compound 59, (2R,4S)-1-[(2R)-2-[2-[2-(2-[[4-(2-[[3-amino-6-(2-hydroxyphenyl)pyridazin-4-yl]oxy]ethyl)phenyl]formamido]ethoxy)ethoxy]acetamido]-3,3-dimethylbutanoyl]-4-hydroxy-N-[[4-(4-methyl-1,3-thiazol-5-yl)phenyl]methyl]pyrrolidine-2-carboxamide]
[1]
  DC50: > 1000 nM
  Dmax: < 50%
[2]
  BRM HiBit Degradation Maximum (%): B (“B” indicates maximum degradation ≥50%)
  DC50: > 1000 nM

## Cc1ncsc1-c1ccc(CNC(=O)[C@H]2C[C@H](O)CN2C(=O)[C@H](NC(=O)COCCOCCOCCNC(=O)c2ccc(CCOc3cc(-c4ccccc4O)nnc3N)cc2)C(C)(C)C)cc1 (stereo in doubt) [Compound 60, (2R,4S)-1-[(2R)-2-(2-[2-[2-(2-[[4-(2-[[3-amino-6-(2-hydroxyphenyl)pyridazin-4-yl]oxy]ethyl)phenyl]formamido]ethoxy)ethoxy]ethoxy]acetamido)-3,3-dimethylbutanoyl]-4-hydroxy-N-[[4-(4-methyl-1,3-thiazol-5-yl)phenyl]methyl]pyrrolidine-2-carboxamide]
[1]
  DC50: > 1000 nM
  Dmax: < 50%
[2]
  BRM HiBit Degradation Maximum (%): B (“B” indicates maximum degradation ≥50%)
  DC50: > 1000 nM

## Cc1ncsc1-c1ccc(CNC(=O)[C@H]2C[C@H](O)CN2C(=O)[C@H](NC(=O)CCCCCNC(=O)CN2CCN(c3cc(-c4ccccc4O)nnc3N)CC2)C(C)(C)C)cc1 (stereo in doubt) [Compound 101, (2R,4S)-1-[(2R)-2-[6-(2-[4-[3-amino-6-(2-hydroxyphenyl)pyridazin-4-yl]piperazin-1-yl]acetamido)hexanamido]-3,3-dimethylbutanoyl]-4-hydroxy-N-[[4-(4-methyl-1,3-thiazol-5-yl)phenyl]methyl]pyrrolidine-2-carboxamide]
[1]
  DC50: > 1000 nM
  Dmax: < 50%
[2]
  BRM HiBit Degradation Maximum (%): B (“B” indicates maximum degradation ≥50%)
  DC50: > 1000 nM

## Nc1nnc(-c2ccccc2O)cc1OCCc1ccc(CNC(=O)CCCCNc2cccc3nnn(C4CCC(=O)NC4=O)c(=O)c23)cc1 (stereo not shown) [Compound 1, N-(4-(2-((3-amino-6-(2-hydroxyphenyl)pyridazin-4-yl)oxy)ethyl)benzyl)-5-((3-(2,6-dioxopiperidin-3-yl)-4-oxo-3,4-dihydrobenzo[d][1,2,3]triazin-5-yl)amino)pentanamide]
[1]
  DC50: > 1000 nM
[2]
  DC50: > 100 nM

## Nc1nnc(-c2ccccc2O)cc1OCCc1ccc(CNC(=O)CCCCNc2cccc3c2CN(C2CCC(=O)NC2=O)C3=O)cc1 (stereo not shown) [Compound 2, N-(4-(2-((3-amino-6-(2-hydroxyphenyl)pyridazin-4-yl)oxy)ethyl)benzyl)-5-((2-(2,6-dioxopiperidin-3-yl)-1-oxoisoindolin-4-yl)amino)pentanamide]
[1]
  DC50: > 1000 nM
[2]
  BRM HiBit Degradation Maximum (%): C (“C” indicates maximum degradation <50%)
  DC50: > 1000 nM

## Nc1nnc(-c2ccccc2O)cc1OCCc1ccc(CNCCN2CCN(c3ccc4c(c3)C(=O)N(C3CCC(=O)NC3=O)C4=O)CC2)cc1 (stereo not shown) [Compound 3, 5-(4-(2-((4-(2-((3-amino-6-(2-hydroxyphenyl)pyridazin-4-yl)oxy)ethyl)benzyl)amino)ethyl)piperazin-1-yl)-2-(2,6-dioxopiperidin-3-yl)isoindoline-1,3-dione]
[1]
  DC50: > 1000 nM
  Dmax: < 50%
[2]
  BRM HiBit Degradation Maximum (%): C (“C” indicates maximum degradation <50%)
  DC50: > 1000 nM

## Nc1nnc(-c2ccccc2O)cc1OCCc1ccc(CNC(=O)CCCCNc2cccc3c2C(=O)N(C2CCC(=O)NC2=O)C3=O)cc1 (stereo not shown) [Compound 4, N-[[4-(2-[[3-amino-6-(2-hydroxyphenyl)pyridazin-4-yl]oxy]ethyl)phenyl]methyl]-5-[[2-(2,6-dioxopiperidin-3-yl)-1,3-dioxoisoindol-4-yl]amino]pentanamide]
[1]
  DC50: > 1000 nM
[2]
  BRM HiBit Degradation Maximum (%): B (“B” indicates maximum degradation ≥50%)
  DC50: > 100 nM

## Nc1nnc(-c2ccccc2O)cc1OCCc1ccc(CNC(=O)CCCCOc2ccc3c(c2)C(=O)N(C2CCC(=O)NC2=O)C3=O)cc1 (stereo not shown) [Compound 5, N-(4-(2-((3-amino-6-(2-hydroxyphenyl)pyridazin-4-yl)oxy)ethyl)benzyl)-5-((2-(2,6-dioxopiperidin-3-yl)-1,3-dioxoisoindolin-5-yl)oxy)pentanamide]
[1]
  DC50: > 1000 nM
[2]
  BRM HiBit Degradation Maximum (%): C (“C” indicates maximum degradation <50%)
  DC50: > 1000 nM

## Nc1nnc(-c2ccccc2O)cc1OCCc1ccc(C(=O)NCCCCCCCCCCCCCCC(=O)NCc2ccc(S(=O)(=O)Nc3cccc4c(Cl)c[nH]c34)cc2)cc1 [Compound 6, 15-[[4-(2-[[3-amino-6-(2-hydroxyphenyl)pyridazin-4-yl]oxy]ethyl)phenyl]formamido]-N-([4-[(3-chloro-1H-indol-7-yl)sulfamoyl]phenyl]methyl)pentadecanamide]
[1]
  DC50: > 1000 nM
  Dmax: < 50%
[2]
  BRM HiBit Degradation Maximum (%): C (“C” indicates maximum degradation <50%)
  DC50: > 1000 nM

## Nc1nnc(-c2ccccc2O)cc1OCCc1ccc(CNC(=O)C2CC2CNC(=O)COc2cccc3c2C(=O)N(C2CCC(=O)NC2=O)C3=O)cc1 (stereo not shown) [Compound 7, N-[[4-(2-[[3-amino-6-(2-hydroxyphenyl)pyridazin-4-yl]oxy]ethyl)phenyl]methyl]-2-[(2-[[2-(2,6-dioxopiperidin-3-yl)-1,3-dioxoisoindol-4-yl]oxy]acetamido)methyl]cyclopropane-1-carboxamide]
[1]
  DC50: > 1000 nM
  Dmax: < 50%
[2]
  BRM HiBit Degradation Maximum (%): C (“C” indicates maximum degradation <50%)
  DC50: > 1000 nM
